Measurements: patent publication EP4635500A1, “THERAPEUTIC AGENT FOR BACTERIAL INFECTION” (Sumitomo Pharma Co., Ltd., priority 2022, dated 2024)
In brackets after ≈: the same amount, converted by molar mass. Where two headings read alike, the source gives them in different places.

Test system: Enterobacterales
Assay: MIC, broth microdilution, CDC/FDA Antibiotic Resistance Isolate Bank (Example 7, Tables 8, 11, 12)
Assay type: cell-based

CN(C)c1cc(NC(=O)CNC(C)(C)C)c(O)c2c1C[C@H]1C[C@H]3[C@H](N(C)C)C(=O)C(C(N)=O)=C(O)[C@@]3(O)C(=O)C1=C2O [Tigecyeline]
MIC (Citrobacter freundii, KUB No. 5654, AR Bank # 157, read-out: MIC): 0.5 µg/mL (≈ 0.854 µM)
MIC (Enterobacter cloacae, Enterobacter cloacae KUB No. 5792, AR Bank #448): 1 µg/mL (≈ 1.71 µM)
MIC (Enterobacter cloacae, Enterobacter cloacae KUB No. 5807, AR Bank #501): 1 µg/mL (≈ 1.71 µM)
MIC (Enterobacter cloacae, Enterobacter cloacae KUB No. 5808, AR Bank #502): 4 µg/mL (≈ 6.83 µM)
MIC (Enterobacter cloacae, Enterobacter cloacae group, KUB No. 5629, AR Bank # 132): 0.5 µg/mL (≈ 0.854 µM)
MIC (Enterobacter cloacae, KUB No. 5529, AR Bank# 32): 1 µg/mL (≈ 1.71 µM)
MIC (Enterobacter cloacae, KUB No. 5535, AR Bank# 38): 4 µg/mL (≈ 6.83 µM)
MIC (Enterobacter cloacae, KUB No. 5547, AR Bank# 50): 0.25 µg/mL (≈ 0.427 µM)
MIC (Enterobacter cloacae, KUB No. 5550, AR Bank# 53): 1 µg/mL (≈ 1.71 µM)
MIC (Enterobacter cloacae, KUB No. 5557, AR Bank# 60): 0.25 µg/mL (≈ 0.427 µM)
MIC (Enterobacter cloacae, KUB No. 5562, AR Bank # 65): 0.5 µg/mL (≈ 0.854 µM)
MIC (Enterobacter cloacae, KUB No. 5569, AR Bank # 72): 2 µg/mL (≈ 3.41 µM)
MIC (Enterobacter cloacae, KUB No. 5570, AR Bank # 73): 1 µg/mL (≈ 1.71 µM)
MIC (Enterobacter cloacae, KUB No. 5590, AR Bank # 93): 0.5 µg/mL (≈ 0.854 µM)
MIC (Enterobacter cloaccae, KUB No. 5651, AR Bank # 154): 0.5 µg/mL (≈ 0.854 µM)
MIC (Enterobacter clooreae, KUB No. 5633, AR Bank # 136): 2 µg/mL (≈ 3.41 µM)
MIC (Escherichia coli, Escherichia coli KUB No. 5783, AR Bank #437): 1 µg/mL (≈ 1.71 µM)
MIC (Escherichia coli, Escherichia coli KUB No. 5794, AR Bank #450): 0.5 µg/mL (≈ 0.854 µM)
MIC (Escherichia coli, Escherichia coli KUB No. 5795, AR Bank #451): 0.5 µg/mL (≈ 0.854 µM)
MIC (Escherichia coli, Escherichia coli KUB No. 5796, AR Bank #452): 0.5 µg/mL (≈ 0.854 µM)
MIC (Escherichia coli, Escherichia coli KUB No. 5803, AR Bank #861): 0.25 µg/mL (≈ 0.427 µM)
MIC (Escherichia coli, KUB No. 5558, AR Bank # 61): 0.25 µg/mL (≈ 0.427 µM)
MIC (Escherichia coli, KUB No. 5564, AR Bank # 67): 0.25 µg/mL (≈ 0.427 µM)
MIC (Escherichia coli, KUB No. 5566, AR Bank # 69): 0.25 µg/mL (≈ 0.427 µM)
MIC (Escherichia coli, KUB No. 5574, AR Bank # 77): 0.12 µg/mL (≈ 0.205 µM)
MIC (Escherichia coli, KUB No. 5578, AR Bank # 81): 0.12 µg/mL (≈ 0.205 µM)
MIC (Escherichia coli, KUB No. 5581, AR Bank # 84): 0.12 µg/mL (≈ 0.205 µM)
MIC (Escherichia coli, KUB No. 5582, AR Bank # 85): 0.25 µg/mL (≈ 0.427 µM)
MIC (Escherichia coli, KUB No. 5583, AR Bank # 86): 0.5 µg/mL (≈ 0.854 µM)
MIC (Escherichia coli, KUB No. 5586, AR Bank # 89): 0.25 µg/mL (≈ 0.427 µM)
MIC (Escherichia coli, KUB No. 5601, AR Bank # 104): 0.12 µg/mL (≈ 0.205 µM)
MIC (Escherichia coli, KUB No. 5611, AR Bank # 114): 0.12 µg/mL (≈ 0.205 µM)
MIC (Escherichia coli, KUB No. 5615, AR Bank # 118): 0.12 µg/mL (≈ 0.205 µM)
MIC (Escherichia coli, KUB No. 5616, AR Bank # 119): 0.5 µg/mL (≈ 0.854 µM)
MIC (Escherichia coli, KUB No. 5625, AR Bank # 128): 0.12 µg/mL (≈ 0.205 µM)
MIC (Escherichia coli, KUB No. 5634, AR Bank # 137): 0.5 µg/mL (≈ 0.854 µM)
MIC (Escherichia coli, KUB No. 5646, AR Bank # 149): 0.25 µg/mL (≈ 0.427 µM)
MIC (Escherichia coli, KUB No. 5647, AR Bank # 150): 0.25 µg/mL (≈ 0.427 µM)
MIC (Escherichia coli, KUB No. 5648, AR Bank # 151): 0.25 µg/mL (≈ 0.427 µM)
MIC (Escherichia coli, KUB No. 5659, AR Bank # 162): 0.5 µg/mL (≈ 0.854 µM)
MIC (Klebsiella aerogenes, Enterobacter aerogenes, KUB No. 5559, AR Bank # 62): 2 µg/mL (≈ 3.41 µM)
MIC (Klebsiella aerogenes, Enterobacter aerogenes, KUB No. 5571, AR Bank # 74): 0.25 µg/mL (≈ 0.427 µM)
MIC (Klebsiella aerogenes, Enterobacter aerogenes, KUB No. 5658, AR Bank # 161): 1 µg/mL (≈ 1.71 µM)
MIC (Klebsiella oxytoca, KUB No. 5568, AR Bank # 71): 1 µg/mL (≈ 1.71 µM)
MIC (Klebsiella oxytoca, KUB No. 5644, AR Bank # 147): 0.5 µg/mL (≈ 0.854 µM)
MIC (Klebsiella ozaenae, KUB No. 5548, AR Bank# 51): 1 µg/mL (≈ 1.71 µM)
MIC (Klebsiella ozaenae, KUB No. 5593, AR Bank # 96): 0.5 µg/mL (≈ 0.854 µM)
MIC (Klebsiella pneumoniae, KUB No. 55, AR Bank# 47): 0.5 µg/mL (≈ 0.854 µM)
MIC (Klebsiella pneumoniae, KUB No. 5531, AR Bank# 34): 0.5 µg/mL (≈ 0.854 µM)
MIC (Klebsiella pneumoniae, KUB No. 5536, AR Bank# 39): 1 µg/mL (≈ 1.71 µM)
MIC (Klebsiella pneumoniae, KUB No. 5537, AR Bank# 40): 2 µg/mL (≈ 3.41 µM)
MIC (Klebsiella pneumoniae, KUB No. 5538, AR Bank# 41): 1 µg/mL (≈ 1.71 µM)
MIC (Klebsiella pneumoniae, KUB No. 5540, AR Bank# 43): 0.5 µg/mL (≈ 0.854 µM)
MIC (Klebsiella pneumoniae, KUB No. 5541, AR Bank# 44): 0.5 µg/mL (≈ 0.854 µM)
MIC (Klebsiella pneumoniae, KUB No. 5543, AR Bank# 46): 2 µg/mL (≈ 3.41 µM)
MIC (Klebsiella pneumoniae, KUB No. 5546, AR Bank# 49): 4 µg/mL (≈ 6.83 µM)
MIC (Klebsiella pneumoniae, KUB No. 5563, AR Bank # 66): 2 µg/mL (≈ 3.41 µM)
MIC (Klebsiella pneumoniae, KUB No. 5565, AR Bank # 68): 2 µg/mL (≈ 3.41 µM)
MIC (Klebsiella pneumoniae, KUB No. 5572, AR Bank # 75): 2 µg/mL (≈ 3.41 µM)
MIC (Klebsiella pneumoniae, KUB No. 5573, AR Bank # 76): 0.25 µg/mL (≈ 0.427 µM)
